{"source": "patent US20240252516A1", "about": "“COMBINATION BPH THERAPY WITH FEXAPOTIDE TRIFLUTATE, A 5-ARI, AND AN ALPHA BLOCKER” (Nymox Corporation, priority 2023, published 2024)", "key": {"[1]": {"tested_on": "patients with BPH", "assay": "Clinical trial in men with BPH: International Prostate Symptom Score (IPSS) change from baseline", "type": "in vivo, human", "settings": "oral medication together with placebo PBS injection, >2 years after treatment", "procedure": "Clinical trials were conducted on numerous individuals having BPH. All protocols were done in accordance with applicable regulations, and carried out by physicians.\nIn a study of 978 men, patients with BPH were first administered a course of antibiotics for a period of 2-4 weeks, and then given an intraprostatic injection of either a) 10 ml of FT in phosphate buffered saline (concentration of 0.25 mg/ml), pH 7.2 (“PBS”) or b) PBS alone, under double-blind conditions by a urologist in an office setting under ultrasound guidance. Each patient was followed for a number of years with regular physical examinations, laboratory tests, and evaluations of symptoms. Symptomatic evaluation was measured by the International Prostate Symptom Score (IPSS) which is a quantitative scale used to gauge prostatic symptomatic improvement or worsening. The IPSS quantifies the following: 1) incomplete bladder emptying after urination; 2) frequent urination; 3) stopping and starting during urination; 4) urgent need to urinate; 5) weakness of urinary stream; 6) need to push or strain during urination; 7) need to urinate after going to sleep at night (nocturia). […]\nUsing the results from the above tables, the average mean IPSS improvement of the respective medications, or combinations of medications can be determined, as well as the percent improvement in mean IPSS when compared to the average of the actives. […]"}, "[2]": {"tested_on": "benign prostatic hyperplasia", "settings": "McConnell et al.; cited from earlier work"}, "[3]": {"tested_on": "5α-reductase", "settings": "blood; cited from earlier work"}, "[4]": {"tested_on": "BPH patients", "settings": "CombAT trial, after 2 years; cited from earlier work"}, "[5]": {"tested_on": "α1- than α2-adrenergic receptors", "settings": "α1 versus α2 selectivity; cited from earlier work"}, "[6]": {"tested_on": "prostate glandular epithelial cells", "assay": "Tissue culture genetic array, in vitro pathway activation", "type": "cell-based", "source_text": "FT is a new molecular entity which in vitro stimulates caspase pathways (activation of caspases 7, 8, and 10, caspase recruitment domains 6, 11, and 14, and DIABLO), tumor necrosis factor pathways (activation of TNF1, TNFSF6, TNFSF8, TNFSF9, CD70 ligands, and TNFRSF19L, TNFRSF25, TRAF2, TRAF3, TRAF4, TRAF6 receptors), and BCL pathways (activation of BIK, HRK, BCL2L10 and BCL3) in prostate glandular epithelial cells, based on tissue culture genetic array data. FT selectively causes loss of cell membrane integrity, mitochondrial metabolic arrest, depletion of RNA, DNA lysis and aggregation, and cell fragmentation and cell loss. The apoptotic process leads to typical ultrastructural progressive changes of membranous disruption and swelling, progressively deepening nuclear invaginations with eventual membranous bleb formations and cell death and fragmentation into apoptotic bodies. Histologically, typical apoptotic changes with positive immunohistochemical staining of markers for apoptosis are found throughout the injected areas for up to several weeks after treatment."}}, "note": "Ends that are not written are not given here.", "data": [{"compound": "CN1CC(=O)N2[C@H](c3ccc4c(c3)OCO4)c3[nH]c4ccccc4c3C[C@@H]2C1=O", "note": "[PDE5 Inhibitor, tadalafil]", "values": [{"measurement": "Mean IPSS Improvement, oral meds alone", "setting": "[1]", "result": 4.67}]}, {"compound": "COc1cc2nc(N3CCN(C(=O)C4COc5ccccc5O4)CC3)nc(N)c2cc1OC", "note": "(centres unmarked) [doxazosin, 1-(4-amino-6,7-dimethoxy-2-quinazolinyl)-4-[(2,3-dihydro-1,4-benzodioxin-2-yl)carbonyl]piperazine]", "values": [{"measurement": "long term (4 year) mean IPSS improvement", "setting": "[2]", "result": 6.6}]}, {"compound": "C[C@]12C=CC(=O)N[C@@H]1CC[C@@H]1[C@@H]2CC[C@]2(C)[C@@H](C(=O)Nc3cc(C(F)(F)F)ccc3C(F)(F)F)CC[C@@H]12", "note": "[dutasteride, 17β-N-(2,5-bis(Trifluoromethyl))phenylcarbamoyl-4-aza-5α-androst-1-en-3-one]", "values": [{"measurement": "reduction in circulating DHT levels", "setting": "[3]", "result": "up to 98%"}, {"measurement": "mean decrease in IPSS from baseline", "setting": "[4]", "result": 4.9}]}, {"compound": "CC(C)(C)NC(=O)[C@H]1CC[C@H]2[C@@H]3CC[C@H]4NC(=O)C=C[C@]4(C)[C@H]3CC[C@]12C", "note": "[finasteride]", "values": [{"measurement": "long term (4 year) mean IPSS improvement", "setting": "[2]", "result": 5.6}, {"measurement": "reduction in circulating DHT levels", "setting": "[3]", "result": "65 to 70", "unit": "%"}]}, {"compound": "Cc1ccc(N(CC2=NCCN2)c2cccc(O)c2)cc1", "note": "[phentolamine]", "values": [{"measurement": "potency in inhibiting α1- than α2-adrenergic receptors", "setting": "[5]", "result": "three to five times more potent"}]}, {"compound": "CCOc1ccccc1OCCN[C@H](C)Cc1ccc(OC)c(S(N)(=O)=O)c1", "note": "[tamsulosin, (R)-5-(2-{[2-(2-Ethoxyphenoxy)ethyl]amino}propyl)-2-methoxybenzene-1-sulfonamide]", "values": [{"measurement": "mean decrease in IPSS from baseline", "setting": "[4]", "result": 4.3}]}, {"compound": "Ile-Asp-Gln-Gln-Val-Leu-Ser-Arg-lle-Lys-Leu-Glu-lle-Lys-Arg-Cys-Leu (IDQQVLSRIKLEIKRCL; also: trifluoroacetate salt) [FT, 1: …]", "values": [{"measurement": "BCL pathways (BIK, HRK, BCL2L10, BCL3)", "setting": "[6]", "result": "stimulates"}, {"measurement": "caspase pathways (caspases 7, 8, 10, caspase recruitment domains 6, 11, 14, DIABLO)", "setting": "[6]", "result": "stimulates"}, {"measurement": "tumor necrosis factor pathways (TNF1, TNFSF6, TNFSF8, TNFSF9, CD70 ligands, TNFRSF19L, TNFRSF25, TRAF2, TRAF3, TRAF4, TRAF6 receptors)", "setting": "[6]", "result": "stimulates"}]}]}
